The results in this text go back to patent US7572785B2, “Substituted imidazoles as cannabinoid receptor modulators” (Merck & Co., Inc., priority 2001, dated 2009).

The melting point is the temperature, or range, at which the solid turns liquid.

Each structure is given as a SMILES string.

Compound `Cn1c(C(=O)NC2CCCCC2)nc(-c2ccc(Cl)cc2Cl)c1-c1ccc(Cl)cc1` gave a melting point of 165 °C.
